Where a name gives a salt, the structure may show the parent alone. Read-outs that look alike come from different tables or passages of the source.
What was measured:
hERG potassium channel = hERG potassium channel (Homo sapiens, UniProt Q12809); assay: hERG inhibitory activity assay (automated patch-clamp, CHO-K1 cells)
Description: On the day of the assay, a dish of cells was removed from the incubator, washed twice with extracellular solution at room temperature, and applied to automated patch-clamp sites. After achieving a whole-cell configuration, the membrane potential was held at −80 mV. A 50 ms pulse to −40 mV was applied to measure leak current, which was subtracted from the tail current in real time. […] This sequence was repeated every 5 s to track the current amplitude. The assay was performed at room temperature, with extracellular solution applied first to stabilize the cell for 5 min. […] Peak tail currents were recorded and plotted against sweep number. The control current amplitude was calculated by averaging five peak tail current measurements at steady state before compound application. The remaining current amplitude after compound inhibition was determined by averaging four to five peak tail current measurements at steady state after compound application.
Percent inhibition was calculated according to the following equation:

DOR = biological target: T1, DOR (Homo sapiens, UniProt P41143); assay: DOR [35S]GTPγS functional assay; assay type: biochemical
T1 construct: expressed in transfected cells; host or cells: CHO (DOR-CHO), membrane preparation
T1 sequence (P41143 whole entry): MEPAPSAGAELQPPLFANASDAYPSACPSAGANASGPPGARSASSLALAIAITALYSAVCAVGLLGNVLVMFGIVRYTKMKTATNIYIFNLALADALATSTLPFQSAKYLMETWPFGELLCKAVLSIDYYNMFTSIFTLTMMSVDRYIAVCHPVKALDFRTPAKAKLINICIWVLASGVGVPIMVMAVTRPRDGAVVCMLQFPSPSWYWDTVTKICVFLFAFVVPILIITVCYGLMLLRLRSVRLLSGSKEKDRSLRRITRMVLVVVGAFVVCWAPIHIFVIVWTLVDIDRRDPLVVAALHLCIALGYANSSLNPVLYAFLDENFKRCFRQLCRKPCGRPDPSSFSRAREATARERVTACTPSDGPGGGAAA
Description: (§1) The [^35S]GTPγS functional assay was used to assess the efficacy of compounds at the MOR, KOR, and DOR. In this assay, 10 μg of MOR-CHO/KOR-CHO/DOR-CHO membrane protein was incubated in 500 μL of TME with 100 mM NaCl, 20 μM GDP, 0.1 nM [^35S]GTPγS, and varying concentrations of the compound for 1.5 h in a 30 °C water bath. Protein concentration was adjusted using the Bradford protein assay. […] After incubation, bound radioactivity was separated by filtration through GF/B glass fiber filters and measured by liquid scintillation counting. All assays were performed in duplicate and repeated at least three times. Net stimulated [35S]GTPγS binding was calculated as agonist-stimulated minus basal binding.

CYP2C19 = biological target: T2, CYP2C19 (Homo sapiens, UniProt P33261); assay: Cytochrome P450 inhibition assay, CYP2C19; assay type: in vitro ADME
T2 construct: Eurofins Panlabs, Inc. (contract laboratory)
T2 sequence (P33261 whole entry): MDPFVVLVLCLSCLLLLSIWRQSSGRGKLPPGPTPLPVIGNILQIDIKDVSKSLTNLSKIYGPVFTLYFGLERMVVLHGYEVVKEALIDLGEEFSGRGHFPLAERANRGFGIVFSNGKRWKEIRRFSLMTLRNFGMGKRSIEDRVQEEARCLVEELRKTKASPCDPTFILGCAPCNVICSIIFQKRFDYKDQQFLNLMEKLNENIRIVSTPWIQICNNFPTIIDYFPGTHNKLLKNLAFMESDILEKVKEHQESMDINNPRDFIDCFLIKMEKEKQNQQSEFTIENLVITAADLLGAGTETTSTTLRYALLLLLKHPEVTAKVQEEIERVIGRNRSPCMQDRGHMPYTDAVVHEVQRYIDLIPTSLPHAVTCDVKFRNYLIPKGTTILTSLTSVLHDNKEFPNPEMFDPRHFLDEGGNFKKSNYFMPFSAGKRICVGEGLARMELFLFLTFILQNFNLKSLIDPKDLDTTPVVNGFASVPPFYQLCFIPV
Description: The ADMET assessment including the hERG inhibitory activity, plasma protein binding, in vitro metabolic stability profile, CYP inhibitory effect and mutagenic evaluation were conducted by Eurofins Panlabs, Inc.[21],[61],[69]−[71]

[1] = In vivo BBB-penetration studies (LC-MS/MS of brain and plasma); parameters: species or system mouse; conditions: 10 mg/kg s.c.; for Brain concentration / concentration at 5 min / concentration at 10 min / concentration at 30 min: n = 3, mean ± SD; for concentration at 5 min / concentration at 10 min / concentration at 30 min: subcutaneous
Description: Swiss Webster mice (three mice each time point) were administered compound 6 (10 mg/kg, s.c.) or vehicle. At 5-, 10-, and 30 min time points post administration, the mice were euthanized by decapitation, and blood and brain samples were collected. Blood samples were centrifuged at 15,000 g for 10 min at 4 °C to isolate plasma. Brains were washed twice with saline before harvesting and stored in saline until homogenization. Both brain and plasma samples were kept at −80 °C until further analysis.
Compound 6 was identified and quantified in mouse plasma and brain using a modified version of a previously established method, with naloxone-d5 as the internal standard.[20] In brief, compound 6 was extracted from both blood and brain using naloxone-d5 as the internal standard (ISTD) by a liquid/liquid extraction. Before extraction, brain tissue samples were homogenized at a ratio of one-part tissue to three-parts water. Seven-point calibration curves (10–1000 ng/mL or ng/g) were prepared for in plasma, and included drug free control, negative control (lacking internal standard, ISTD) for plasma and brain, and quality control samples in plasma and brain (30, 300, and 750 ng/mL or ng/g). […], used as the internal standard, was added at a concentration of 10 ng/mL to either 100 μL of blood or 400 μL for brain homogenate to each calibrator, control, or sample, excluding the negative control. To these samples 0.5 mL of saturated carbonate/bicarbonate buffer (1:1, pH 9.5) and 2.0 mL of chloroform: isopropanol (8:2) were added. The mixtures were vortexed, centrifuged and the top aqueous layer was removed. The organic layer was transferred to a clean test tube and evaporated to dryness under nitrogen. The residues were reconstituted in 80:20 methanol: water and transferred to autosampler vials for analysis. Chromatographic separation of compound 6 and naltrexone-d5 was performed using a Shimadzu Nexera X2 liquid chromatography system with a Zorbax XDB-C18 4.6 × 75 mm, 3.5-μm column (Agilent Technologies, Santa Clara, CA). The mobile phase consisted of water with 1 g/L ammonium formate and 0.1% formic acid (Phase A) and methanol (Phase B). The flow rate was maintained at 1 mL/min. The gradient started at 20% B, increased to 80% within 1 min, and was held for 1.5 min before returning to the initial conditions. Detection was carried out using a Sciex 6500 QTRAP system with an IonDrive Turbo V source for TurbolonSpray (Sciex, Ontario, Canada). The curtain gas flow rate set to 30 mL/min while the ion source gases 1 and 2 were set to 60 mL/min. The source temperature was maintained at 650 °C and the ionspray voltage was set at 5500 V. The declustering potential was […]. The following quantification and qualifying transition ions were monitored in positive multiple reaction monitoring (MRM) mode with collisions energies in parentheses: compound 6 455> 437 (26), 455 > 268 & (41); naloxone-d5 333> 212 (45), &333 > 315 (25). Retention times of compound 6 and naloxone-d5 were 1.81 and 1.69 min, respectively. The total run time was 4 min. Compound 6 concentration was determined by linear regression plot based on peak area ratios of the calibrators.

MOR = biological target: T3, MOR (Mus musculus, UniProt P42866); assay: MOR [35S]GTPγS functional assay; assay type: biochemical
T3 construct: expressed in transfected cells; host or cells: CHO (MOR-CHO), membrane preparation
T3 sequence (P42866 whole entry): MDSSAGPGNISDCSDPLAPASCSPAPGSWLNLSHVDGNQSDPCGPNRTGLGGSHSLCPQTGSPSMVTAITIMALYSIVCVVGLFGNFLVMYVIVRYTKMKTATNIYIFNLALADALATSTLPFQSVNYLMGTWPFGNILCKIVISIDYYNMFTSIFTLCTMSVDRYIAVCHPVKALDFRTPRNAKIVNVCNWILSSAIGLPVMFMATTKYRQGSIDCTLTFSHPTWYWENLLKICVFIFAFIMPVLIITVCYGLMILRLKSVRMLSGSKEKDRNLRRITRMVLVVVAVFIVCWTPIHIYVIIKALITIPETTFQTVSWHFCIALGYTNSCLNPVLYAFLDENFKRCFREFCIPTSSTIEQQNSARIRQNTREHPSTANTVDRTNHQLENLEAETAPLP
Description: as §1

δ opioid receptor (DOR) = biological target: T4, δ opioid receptor (DOR) (Homo sapiens, UniProt P41143); assay: Competitive radioligand binding assay, DOR
T4 construct: expressed in transfected cells; host or cells: CHO (hDOR-CHO), membrane preparation
T4 sequence (P41143 whole entry): as the sequence (P41143 whole entry) above
Description: The competition binding assay was performed using monoclonal mouse opioid receptors expressed in CHO cell lines (monoclonal human δ opioid receptor was used for the DOR assay).
The bound radioligand was separated using a Brandel harvester. Specific binding to the MOR, KOR, and DOR was calculated by subtracting the binding observed in the presence of 5 μM naltrexone, U50488, and SNC80, respectively, from the binding in their absence. Relative affinity values (IC50) were determined by fitting displacement binding inhibition data to a nonlinear regression model using GraphPad Prism 8.0 (GraphPad Software, San Diego, CA). The % inhibition was calculated using the formula: % inhibition = 100% - [(binding with the tested compound - nonspecific binding)/specific binding] × 100%. The IC50 values were converted to Ki values using the Cheng-Prusoff equation: Ki = IC50/ [1 + ([L*]/KD)], where [L*] is the concentration of the radioligand and KD is the KD of the radioligand.[68]

[2] = human, CHO-K1 cells stably expressing hERG

Chain of hERG potassium channel (Q12809 whole entry): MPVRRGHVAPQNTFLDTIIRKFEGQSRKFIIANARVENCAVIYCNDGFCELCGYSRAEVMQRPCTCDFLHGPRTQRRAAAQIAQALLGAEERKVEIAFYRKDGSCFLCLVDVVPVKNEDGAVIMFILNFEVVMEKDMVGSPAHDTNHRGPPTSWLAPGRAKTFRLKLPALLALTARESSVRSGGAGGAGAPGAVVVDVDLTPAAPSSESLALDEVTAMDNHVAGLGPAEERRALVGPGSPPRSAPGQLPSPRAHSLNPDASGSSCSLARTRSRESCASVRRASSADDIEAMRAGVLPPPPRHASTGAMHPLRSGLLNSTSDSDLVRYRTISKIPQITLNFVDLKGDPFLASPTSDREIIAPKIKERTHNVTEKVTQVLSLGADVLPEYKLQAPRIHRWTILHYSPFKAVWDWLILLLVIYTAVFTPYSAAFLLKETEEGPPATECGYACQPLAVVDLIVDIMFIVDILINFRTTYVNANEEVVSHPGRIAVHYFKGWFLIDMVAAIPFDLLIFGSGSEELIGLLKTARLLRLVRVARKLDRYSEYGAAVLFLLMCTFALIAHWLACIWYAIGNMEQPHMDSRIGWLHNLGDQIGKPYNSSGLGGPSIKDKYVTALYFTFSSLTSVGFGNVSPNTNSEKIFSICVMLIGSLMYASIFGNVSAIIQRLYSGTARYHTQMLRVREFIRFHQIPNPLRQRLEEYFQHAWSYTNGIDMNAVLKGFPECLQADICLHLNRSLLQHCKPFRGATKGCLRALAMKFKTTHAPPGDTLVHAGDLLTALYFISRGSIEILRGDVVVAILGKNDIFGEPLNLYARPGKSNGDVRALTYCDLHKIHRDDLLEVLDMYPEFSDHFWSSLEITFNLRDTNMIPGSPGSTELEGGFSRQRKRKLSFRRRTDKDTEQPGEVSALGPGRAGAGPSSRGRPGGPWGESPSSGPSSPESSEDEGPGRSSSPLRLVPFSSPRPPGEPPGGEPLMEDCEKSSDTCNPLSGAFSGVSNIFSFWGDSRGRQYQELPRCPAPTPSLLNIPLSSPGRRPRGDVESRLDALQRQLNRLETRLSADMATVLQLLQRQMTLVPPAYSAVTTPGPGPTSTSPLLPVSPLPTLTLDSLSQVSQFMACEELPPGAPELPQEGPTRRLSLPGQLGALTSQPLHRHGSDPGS

O=C(N[C@H]1CC[C@@]2(O)[C@H]3Cc4ccc(O)c5c4[C@@]2(CCN3CC2CC2)[C@H]1O5)c1nccs1 [Compound 6, 17-Cyclopropylmethyl-3,14β-dihydroxy-4,5α-epoxy-6α-(2′-thiazolylcarboxamido)-morphinan hydrochloride]
IC50 (hERG potassium channel): 7400 nM
inhibition at 10 nM (hERG potassium channel; [2]): 2.6%
inhibition at 100 nM (hERG potassium channel; [2]): 6%
inhibition at 1 µM (hERG potassium channel; [2]): 18.5%
inhibition at 10 µM (hERG potassium channel; [2]): 55.5%
inhibition at 0.0001 M (hERG potassium channel; [2]): 86.8%
EC50 (DOR): 23.6 ± 4.29 nM
Emax (DOR; relative to 3 μM SNC80, mean ± SEM, read-out: DOR [35S]GTPγS binding % Emax of SNC80): 46.5 ± 2.17%
inhibition at 10 µM (CYP2C19; 1.0E-05 M): 78.4%
inhibition at 100 nM (CYP2C19; 1.0E-07 M): 13.2%
Decrease in the plasma levels over 30 min [1]: 33%
Brain concentration ([1]; 5 min): 0.187 ± 0.07 µg/g
Brain concentration ([1]; 10 min): 0.235 ± 0.06 µg/g
Brain concentration ([1]; 30 min): 0.264 ± 0.05 µg/g
Kp at 5 min ([1]; Swiss Webster, mouse, brain and plasma, sc, 5 min, read-out: Brain-to-Plasma ratio): 0.102
Kp at 10 min ([1]; Swiss Webster, mouse, brain and plasma, sc, 10 min, read-out: Brain-to-Plasma ratio): 0.173
Kp at 0.5 h ([1]; Swiss Webster, mouse, brain and plasma, sc, 30 min, read-out: Brain-to-Plasma ratio): 0.217
concentration at 5 min ([1]; Swiss Webster, mouse, brain, 5 min, read-out: Brain concentration): 187 ng/g
concentration at 10 min ([1]; Swiss Webster, mouse, brain, 10 min, read-out: Brain concentration): 235 ng/g
concentration at 30 min ([1]; Swiss Webster, mouse, brain, 30 min, read-out: Brain concentration): 264 ng/g
concentration at 5 min ([1]; Swiss Webster, mouse, plasma, 5 min, read-out: Plasma concentration): 1820 ± 280 ng/mL
concentration at 10 min ([1]; Swiss Webster, mouse, plasma, 10 min, read-out: Plasma concentration): 1360 ± 210 ng/mL
concentration at 30 min ([1]; Swiss Webster, mouse, plasma, 30 min, read-out: Plasma concentration): 1220 ± 330 ng/mL
EC50 (MOR): 2.16 ± 0.38 nM
Emax (MOR; read-out: MOR [35S]GTPγS Binding %Emax of DAMGO, relative to 3 μM DAMGO, mean ± SEM): 6 to 11%
MOR [35S]GTPγS Binding %Emax of DAMGO (MOR; relative to 3 μM DAMGO, mean ± SEM): 11.3 ± 1.30%
Ki (δ opioid receptor (DOR)): 41.1 ± 3.58 nM
Selectivity δ/μ (δ opioid receptor (DOR); ratio of Ki values): 164
